Where no end group is shown, it is not given here.

The text below walks through data of PMC5760527, “Connexin 43 Hemichannel as a Novel Mediator of Sterile and Infectious Inflammatory Diseases” (Scientific Reports, 2018).

In one assay the test system is PKR phosphorylation. Particulars: cited from earlier work. The text has this:
(§1) The establishment of HMGB1 as a critical mediator of various inflammatory diseases has prompted an on-going search for endogenous and exogenous modulators of HMGB1 secretion.

Another assay relates to HMGB1 secretion. The note with it: cited from earlier work.
Excerpt: as §1

Assay [1] concerns Cx43 GJ and hemichannel activities. Particulars: cited from earlier work. The text has this: The establishment of HMGB1 as a critical mediator of various inflammatory diseases has prompted an on-going search for endogenous and exogenous modulators of HMGB1 secretion. […] We thus evaluated the alteration of macrophage hemichannel activities in the absence or presence of Cx43 mimetic peptides previously shown to be capable of blocking Cx43 hemichannels. […] Because Cx43 GJ and hemichannels often co-exist in plasma membranes, a definitive elucidation of the functions of Cx43 GJ or hemichannels has been quite challenging. First, genetic deletion would eliminate both channels. Secondly, these two types of Cx channels are susceptible to a similar array of chemical blockers. Latel ...

A further assay addresses T1, Cx43 EL1 peptide (Homo sapiens, UniProt P17302).
T1 construct: synthetic full-length Cx43 EL1 or EL2 peptide as judged by the Surface Plasmon Resonance Analysis
The assay can be described thus: Surface Plasmon Resonance, Cx43 EL1 peptide. In kind it is binding. The note with it: Cx43 EL1 peptide.

Assay [2] relates to macrophage Cx43 hemichannel activities, RAW 264.7 cells. The assay can be described thus: Lucifer Yellow dye uptake, hemichannel permeability, calcium-depleted. Type of assay: cell-based, murine. Particulars: LPS 0.5 μg/ml, 16 h, LY 15 min, P < 0.05 versus +LPS. The text has this:
Because connexon is the structural unit for both hemichannel (1 connexon) and gap junction (2 connexons from opposing cells), which are both permeable to similar molecular weight molecules, such as the Lucifer yellow (LY). Thus, the LY dye uptake could be used to determine the channel permeability of both hemichannel (as indicated by the rate of LY entry into the cells) and gap junction channels (as judged by the distance of intercellular LY diffusion). The LY dye uptake assay relied on the ability of this dye present in the extracellular milieu to cross the plasma membrane and became concentrated inside of the cell, which could be quantified by fluorescence microscopy. To determine the effects of Cx43 mimetic peptides on hemichannel permeability, RAW 264.7 cells were subjected to LPS stimulation (0.5 µg/ml, 16 h) before replacing the medium with fresh DMEM containing various Cx43 mimetic peptides, GAP26 (100 µM), TAT-GAP19 (200 µM) or P5 (20 µM). Following a brief incubation (15 min), EGTA (1 mM) was added to deplete free calcium prior to the addition of LY dye (1%). Fifteen min later, cells were fixed with 2% paraformaldehyde, and the number of LY-positive cells was counted. The ratio of LY-positive cells vs. total cell counts (DAPI staining) was used as the measurement of hemichannel permeability.

Assay [3] deals with Balb/c mice, polymicrobial sepsis (CLP). The assay can be described thus: CLP-induced sepsis survival. Type of assay: in vivo. The note with it: i.p., +6, +18 and +36 h post CLP, two weeks; for animal survival (in words): CLP, Balb/c mice; for survivors: saline 50%. An excerpt: This study was approved and performed in accordance with the guidelines of the Institutional Animal Care and Use Committee of the Feinstein Institute for Medical Research, Manhasset, New York, USA (Animal Protocol #2008-033, Approval date: September 10, 2014). To evaluate the effect of various Cx43 mimetic peptides on sepsis lethality, a clinically relevant animal model of sepsis induced by cecal ligation and puncture (CLP) was employed. Briefly, the cecum of Balb/c mice was ligated at about 5 mm from the cecal tip, and then punctured once with a 22-gauge needle. GAP26, TAT-GAP19 or P5 peptides were administered intraperitoneally into mice at indicated doses and time points, and animal survival rates were monitored for up to 2 wks. The Kaplan-Meier method was used to compare the differences in mortality rates between groups.

T1 sequence (P17302 45-76 limits assumed): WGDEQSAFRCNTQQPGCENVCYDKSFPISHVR

As to `CC1(C)[C@@H](OC(=O)CCC(=O)O)CC[C@]2(C)[C@H]3C(=O)C=C4[C@@H]5C[C@@](C)(C(=O)O)CC[C@]5(C)CC[C@@]4(C)[C@]3(C)CC[C@@H]12` [carbenoxolone], the “endotoxin-induced PKR phosphorylation” value with PKR phosphorylation is on record as “effectively prevented”. Moreover, the “PKR-mediated HMGB1 secretion” value in the assay on HMGB1 secretion is listed as “effectively prevented”. For the same compound, the “blocking of Cx43 GJ and hemichannel activities” value in assay [1] (no reference given) is “blocking Cx43 GJ and hemichannel activities”.

As to QPGCEN [P4], at Cx43 EL1 peptide, the Kd is 20 µM.

Take “VCYDKSFPISHVR [GAP26, Cx43 mimetic peptide GAP26 (…), first extracellular loop]”: the “effect on endotoxin-induced hemichannel activities (LY dye uptake)” value in assay [2] (GAP26 100 μM) is listed as “significant impairment of the endotoxin-induced elevation of hemichannel activities”. The “animal survival (in words)” value in assay [3] was “reproducibly increased animal survival rates”. The “interruption of GJ formation” value in assay [1] (after prolonged application, no reference given) is on record as “interruption of GJ formation after prolonged application”. The “inhibition of Cx43 hemichannel activities or gap junction formation” value in assay [1] is listed as “inhibiting Cx43 hemichannel activities or gap junction formation”.

On to YGRKKRRQRRRK-QIEIKKFK [TAT-GAP19], for which the “effect on LY dye uptake (hemichannel activities)” value in assay [2] (TAT-GAP19 200 μM) is given as “elevated LY dye uptake”. In addition, the figures for the survivors in assay [3] (15 mg/kg) and in assay [3] (120 mg/kg) were 60% and 20%, respectively. In addition, the “animal survival (in words)” value in assay [3] is “decreased animal survival particularly when given at a comparable higher dose”.
